Results: ChEMBL document CHEMBL1201862, “PubChem BioAssay data set” (2004)
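Cultured in 96-well plates, cells were exposed to test compound for 48 hours across five concentrations. GI50: concentration for 50% inhibition of growth.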 Active and inactive are the calls of the source. No stated cut-off is given here; in the data, active = GI50 up to about 1.1 µM and inactive = higher.

What was measured:
Test in all cases: NCI-60 cell line screen, 48 h
SW-620 = test system: SW-620
T47D = test system: T47D
SF-295 = test system: SF-295
SNB-75 = test system: SNB-75
UACC-62 = test system: UACC-62
M14 = test system: M14
RXF 393 = test system: RXF 393
A549 = test system: A549
SNB-19 = test system: SNB-19
HCT-15 = test system: HCT-15
KM12 = test system: KM12
Malme-3M = test system: Malme-3M
SK-MEL-5 = test system: SK-MEL-5
OVCAR-8 = test system: OVCAR-8
MDA-MB-435 = test system: MDA-MB-435
UO-31 = test system: UO-31
OVCAR-4 = test system: OVCAR-4
K562 = test system: K562
SR = test system: SR
U-251 = test system: U-251

SMILES: CC1(c2cccc(C3CCC4(C=CC3=O)OCCO4)c2)OCCO1 (stereo not given)
- GI50 (SW-620): 2.9 µM (inactive)
- GI50 (T47D): 8.49 µM (inactive)
- GI50 (SF-295): 34.3 µM (inactive)
- GI50 (SNB-75): 16.3 µM (inactive)
- GI50 (UACC-62): 6.52 µM (inactive)
- GI50 (M14): 6.97 µM (inactive)
- GI50 (RXF 393): 5.9 µM (inactive)
- GI50 (A549): 18.5 µM (inactive)
- GI50 (SNB-19): 15.9 µM (inactive)
- GI50 (HCT-15): 5.36 µM
- GI50 (KM12): 17.4 µM (inactive)
- GI50 (Malme-3M): 4.71 µM (inactive)
- GI50 (SK-MEL-5): 14.6 µM (inactive)
- GI50 (OVCAR-8): 13.5 µM (inactive)
- GI50 (MDA-MB-435): 13.4 µM (inactive)
- GI50 (UO-31): 6.64 µM (inactive)
- GI50 (OVCAR-4): 7.28 µM (inactive)
- GI50 (K562): 3.08 µM (inactive)
- GI50 (SR): 3.12 µM (inactive)
- GI50 (U-251): 18.1 µM (inactive)

SMILES: C=C(CO[Si](C)(C)C(C)(C)C)C(C)=O
- GI50 (SW-620): 8.15 µM (inactive)
- GI50 (T47D): 21.6 µM (inactive)
- GI50 (SF-295): > 100 µM (inactive)
- GI50 (SNB-75): 20 µM (inactive)
- GI50 (UACC-62): 15.7 µM (inactive)
- GI50 (M14): 13.1 µM (inactive)
- GI50 (RXF 393): 14.5 µM (inactive)
- GI50 (A549): > 100 µM (inactive)
- GI50 (SNB-19): > 86.1 µM (inactive)
- GI50 (HCT-15): 13.9 µM
- GI50 (KM12): 58.1 µM (inactive)
- GI50 (Malme-3M): 16.6 µM (inactive)
- GI50 (SK-MEL-5): 14.6 µM (inactive)
- GI50 (OVCAR-8): 18.8 µM (inactive)
- GI50 (MDA-MB-435): 17.6 µM (inactive)
- GI50 (UO-31): > 46.9 µM (inactive)
- GI50 (OVCAR-4): 21 µM (inactive)
- GI50 (K562): 6.73 µM (inactive)
- GI50 (SR): 3.55 µM (inactive)
- GI50 (U-251): > 63.2 µM (inactive)

SMILES: Cc1cc(/N=C2\C=C(Nc3cc(C)on3)C(=O)c3ccccc32)no1
- GI50 (SW-620): > 100 µM (inactive)
- GI50 (T47D): 47.3 µM (inactive)
- GI50 (SF-295): 46.5 µM (inactive)
- GI50 (SNB-75): 31.6 µM (inactive)
- GI50 (UACC-62): 12 µM (inactive)
- GI50 (M14): 34.7 µM (inactive)
- GI50 (RXF 393): 30.3 µM (inactive)
- GI50 (A549): 31.2 µM (inactive)
- GI50 (SNB-19): 61 µM (inactive)
- GI50 (HCT-15): 48.1 µM
- GI50 (KM12): > 71.8 µM (inactive)
- GI50 (Malme-3M): 21.5 µM (inactive)
- GI50 (SK-MEL-5): 1.82 µM (inactive)
- GI50 (OVCAR-8): 37.3 µM (inactive)
- GI50 (MDA-MB-435): 7.24 µM (inactive)
- GI50 (UO-31): 43.7 µM (inactive)
- GI50 (OVCAR-4): > 100 µM (inactive)
- GI50 (K562): > 100 µM (inactive)
- GI50 (SR): > 100 µM (inactive)
- GI50 (U-251): 30.1 µM (inactive)

SMILES: CC1OC(OC2CC(O)(C(=O)CO)Cc3c(O)c4c(c(O)c32)C(=O)c2ccccc2C4=O)CC(N)C1O (stereo not given)
- GI50 (SW-620): < 0.01 µM (active)
- GI50 (T47D): < 0.01 µM (active)
- GI50 (SF-295): < 0.01 µM (active)
- GI50 (SNB-75): < 0.0137 µM (active)
- GI50 (UACC-62): 0.0101 µM (active)
- GI50 (M14): < 0.015 µM (active)
- GI50 (RXF 393): 0.0162 µM (active)
- GI50 (A549): < 0.01 µM (active)
- GI50 (SNB-19): < 0.01 µM (active)
- GI50 (HCT-15): 0.0708 µM
- GI50 (KM12): 0.0168 µM (active)
- GI50 (Malme-3M): < 0.01 µM (active)
- GI50 (SK-MEL-5): < 0.0105 µM (active)
- GI50 (OVCAR-8): 0.0171 µM (active)
- GI50 (MDA-MB-435): 0.156 µM (active)
- GI50 (UO-31): 0.0232 µM (active)
- GI50 (OVCAR-4): 0.0813 µM (active)
- GI50 (K562): < 0.0118 µM (active)
- GI50 (SR): < 0.01 µM (active)
- GI50 (U-251): < 0.01 µM (active)

SMILES: Cc1cc(C)c2c(=N)c3ccccc3n(CCCCCCn3c4ccccc4c(=N)c4c(C)cc(C)nc43)c2n1
- GI50 (SW-620): 0.209 µM (active)
- GI50 (T47D): 1.92 µM (inactive)
- GI50 (SF-295): 1.36 µM (inactive)
- GI50 (SNB-75): 0.628 µM (active)
- GI50 (UACC-62): 1.77 µM (inactive)
- GI50 (M14): 1.85 µM (inactive)
- GI50 (RXF 393): 1.25 µM (inactive)
- GI50 (A549): 1.63 µM (inactive)
- GI50 (SNB-19): 0.767 µM (active)
- GI50 (HCT-15): 0.181 µM
- GI50 (KM12): 0.346 µM (active)
- GI50 (Malme-3M): 1.63 µM (inactive)
- GI50 (SK-MEL-5): 1.84 µM (inactive)
- GI50 (OVCAR-8): 1.68 µM (inactive)
- GI50 (MDA-MB-435): 1.77 µM (inactive)
- GI50 (UO-31): 1.56 µM (inactive)
- GI50 (OVCAR-4): 1.43 µM (inactive)
- GI50 (K562): 0.3 µM (active)
- GI50 (SR): 0.197 µM (active)
- GI50 (U-251): 0.252 µM (active)

SMILES: CC(C)(C)NC1=NC(C(F)(F)F)(C(F)(F)F)NC(=O)N1
- GI50 (SW-620): > 100 µM (inactive)
- GI50 (T47D): 28.3 µM (inactive)
- GI50 (SF-295): 39.7 µM (inactive)
- GI50 (SNB-75): 75.2 µM (inactive)
- GI50 (UACC-62): 54.6 µM (inactive)
- GI50 (M14): 44.5 µM (inactive)
- GI50 (RXF 393): > 100 µM (inactive)
- GI50 (A549): 35.1 µM (inactive)
- GI50 (SNB-19): 67.3 µM (inactive)
- GI50 (HCT-15): 57 µM
- GI50 (KM12): 68.4 µM (inactive)
- GI50 (Malme-3M): 34.4 µM (inactive)
- GI50 (SK-MEL-5): 24.8 µM (inactive)
- GI50 (OVCAR-8): 80.4 µM (inactive)
- GI50 (MDA-MB-435): 37.1 µM (inactive)
- GI50 (UO-31): 53.6 µM (inactive)
- GI50 (OVCAR-4): 36.3 µM (inactive)
- GI50 (K562): 30.7 µM (inactive)
- GI50 (SR): 37 µM (inactive)
- GI50 (U-251): 70.3 µM (inactive)
